In publication PMC5293596 (Chemical research in toxicology, 2016):

Assays:
P450 2A13 [1] = biological target: T1, P450 2A13 (Homo sapiens, UniProt Q16696); experiment: Oxidation by P450 2A13 bicistronic membranes, HPLC; details: for metabolism (HPLC): product peaks only with NADPH-generating system; for Formation of oxygenated products on LC-MS analysis: results not shown
T1 sequence (Q16696 1-494): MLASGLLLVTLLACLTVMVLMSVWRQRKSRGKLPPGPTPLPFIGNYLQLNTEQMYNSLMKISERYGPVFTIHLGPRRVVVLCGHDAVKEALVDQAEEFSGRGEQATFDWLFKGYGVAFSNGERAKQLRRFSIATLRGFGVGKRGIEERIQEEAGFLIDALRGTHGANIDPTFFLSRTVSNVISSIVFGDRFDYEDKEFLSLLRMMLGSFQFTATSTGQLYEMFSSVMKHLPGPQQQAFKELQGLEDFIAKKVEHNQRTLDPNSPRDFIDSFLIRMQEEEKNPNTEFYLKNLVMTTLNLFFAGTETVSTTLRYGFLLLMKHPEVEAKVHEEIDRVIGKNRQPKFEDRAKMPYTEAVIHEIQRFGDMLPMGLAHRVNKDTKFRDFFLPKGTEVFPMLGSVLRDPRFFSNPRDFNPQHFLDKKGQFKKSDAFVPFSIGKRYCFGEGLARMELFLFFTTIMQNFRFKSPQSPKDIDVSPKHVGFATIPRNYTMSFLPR

P450 2A13 [2] = experiment: Spectral binding titration; set-up: species or system human; details: P450 2A13 vs P450 2A6
P450 2A6 [3] = biological target: T2, P450 2A6 (Homo sapiens, UniProt P11509); experiment: Oxidation by P450 2A6 bicistronic membranes, HPLC; details: product peaks only with NADPH-generating system
T2 sequence (P11509 1-494): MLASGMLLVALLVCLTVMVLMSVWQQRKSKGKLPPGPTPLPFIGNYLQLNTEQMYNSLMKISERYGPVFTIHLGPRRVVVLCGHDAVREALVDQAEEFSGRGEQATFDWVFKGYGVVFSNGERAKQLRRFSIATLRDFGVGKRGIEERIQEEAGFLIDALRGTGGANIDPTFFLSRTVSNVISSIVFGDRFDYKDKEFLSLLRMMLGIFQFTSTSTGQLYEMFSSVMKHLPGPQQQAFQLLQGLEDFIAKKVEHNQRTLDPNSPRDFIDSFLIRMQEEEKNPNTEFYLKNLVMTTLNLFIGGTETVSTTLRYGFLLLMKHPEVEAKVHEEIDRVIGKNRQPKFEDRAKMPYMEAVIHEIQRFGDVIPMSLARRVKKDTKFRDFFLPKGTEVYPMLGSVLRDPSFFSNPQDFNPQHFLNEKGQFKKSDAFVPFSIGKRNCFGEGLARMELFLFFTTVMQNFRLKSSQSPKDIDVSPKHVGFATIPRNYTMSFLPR

P450 1A2 [4] = biological target: T3, P450 1A2 (Homo sapiens, UniProt P05177); experiment: Oxidation by P450 1A2 bicistronic membranes, HPLC; details: Figure 5
T3 sequence (P05177 1-516): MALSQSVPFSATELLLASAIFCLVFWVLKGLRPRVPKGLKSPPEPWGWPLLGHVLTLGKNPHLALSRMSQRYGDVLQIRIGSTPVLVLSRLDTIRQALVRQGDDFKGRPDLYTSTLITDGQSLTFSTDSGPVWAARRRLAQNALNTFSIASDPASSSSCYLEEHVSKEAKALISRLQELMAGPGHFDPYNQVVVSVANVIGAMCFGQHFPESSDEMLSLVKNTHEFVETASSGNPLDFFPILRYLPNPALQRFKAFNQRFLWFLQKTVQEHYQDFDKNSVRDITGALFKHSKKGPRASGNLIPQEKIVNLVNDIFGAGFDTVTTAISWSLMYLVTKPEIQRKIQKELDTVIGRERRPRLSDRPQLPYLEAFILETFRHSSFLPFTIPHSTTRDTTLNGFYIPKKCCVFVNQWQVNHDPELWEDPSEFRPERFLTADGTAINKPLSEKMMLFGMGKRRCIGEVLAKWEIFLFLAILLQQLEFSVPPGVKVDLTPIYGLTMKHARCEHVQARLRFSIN

P450 1B1 (1B1.3, L432V) = biological target: T4, P450 1B1 (1B1.3, L432V) (Homo sapiens, UniProt Q16678, L432V); experiment: Oxidation by P450 1B1 bicistronic membranes, HPLC; details: P450 1B1.3; Figure 5
T4 sequence (Q16678 1-543 L432V): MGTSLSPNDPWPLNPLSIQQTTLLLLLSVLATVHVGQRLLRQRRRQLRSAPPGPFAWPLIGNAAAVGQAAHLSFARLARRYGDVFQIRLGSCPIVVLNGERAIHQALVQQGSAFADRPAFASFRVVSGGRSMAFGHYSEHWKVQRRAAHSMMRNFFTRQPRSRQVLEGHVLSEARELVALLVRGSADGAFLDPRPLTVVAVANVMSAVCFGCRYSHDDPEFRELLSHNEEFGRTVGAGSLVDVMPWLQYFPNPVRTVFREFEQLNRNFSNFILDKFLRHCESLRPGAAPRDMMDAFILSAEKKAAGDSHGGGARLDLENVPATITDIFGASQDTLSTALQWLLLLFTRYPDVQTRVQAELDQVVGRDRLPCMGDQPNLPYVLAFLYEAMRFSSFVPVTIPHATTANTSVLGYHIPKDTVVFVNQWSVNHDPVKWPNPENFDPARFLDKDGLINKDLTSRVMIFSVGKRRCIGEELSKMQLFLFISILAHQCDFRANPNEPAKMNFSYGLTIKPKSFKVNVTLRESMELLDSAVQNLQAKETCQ

P450 2A6 [5] = biological target: T2, P450 2A6; experiment: Spectral binding titration; details: P450 2A6 1.0 μM, pH 7.4; means and S.E.
P450 1A1 = biological target: T5, P450 1A1 (Homo sapiens, UniProt P04798); experiment: 7-Ethoxyresorufin O-deethylation by P450 1A1
T5 sequence (P04798 1-512): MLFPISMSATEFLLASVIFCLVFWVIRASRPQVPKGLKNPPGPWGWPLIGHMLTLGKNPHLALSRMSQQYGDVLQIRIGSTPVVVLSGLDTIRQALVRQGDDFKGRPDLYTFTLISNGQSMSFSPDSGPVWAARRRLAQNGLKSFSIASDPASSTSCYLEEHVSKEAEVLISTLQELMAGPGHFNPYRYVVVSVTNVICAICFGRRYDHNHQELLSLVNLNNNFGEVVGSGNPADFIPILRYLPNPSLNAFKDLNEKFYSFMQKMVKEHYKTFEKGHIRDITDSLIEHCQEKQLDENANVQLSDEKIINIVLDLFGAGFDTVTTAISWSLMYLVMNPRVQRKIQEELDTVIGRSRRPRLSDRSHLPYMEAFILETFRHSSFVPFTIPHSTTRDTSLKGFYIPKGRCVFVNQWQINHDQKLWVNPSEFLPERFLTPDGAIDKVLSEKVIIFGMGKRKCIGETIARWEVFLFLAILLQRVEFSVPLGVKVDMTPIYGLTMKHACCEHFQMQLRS

P450 1A2 [6] = biological target: T3, P450 1A2; experiment: 7-Ethoxyresorufin O-deethylation by P450 1A2
P450 1B1 = biological target: T6, P450 1B1 (Homo sapiens, UniProt Q16678, L432V); experiment: 7-Ethoxyresorufin O-deethylation by P450 1B1
T6 sequence (Q16678 1-543 L432V): T4 sequence (Q16678 1-543 L432V)

P450 2A13 [7] = biological target: T1, P450 2A13; experiment: Spectral binding titration; details: P450 2A13

SMILES	metabolism (HPLC) (P450 2A13 [1])	metabolism (HPLC) (P450 2A6 [3])	other results
C#CCOCc1ccccc1-c1ccccc1 [2BMPE, 2-biphenyl methyl propargyl ether]	not detected	–	–
C#CCOc1ccccc1-c1ccccc1 [2BPE, 2-biphenyl propargyl ether]	yes	–	–
C#Cc1ccc2ccccc2c1 [2EN, 2-ethynylnaphthalene]	yes	yes	ΔAmax/Ks ratio with P450 2A13 relative to that with P450 2A6 (P450 2A13 [2]): about 10 fold
C#Cc1ccc2c(ccc3ccccc32)c1 [2EPh, 2-ethynylphenanthrene]	yes	yes	Oxidation (product formation on HPLC) (P450 1A2 [4]): oxidized 2EPh at lower levels than P450s 2A13 and 2A6; Oxidation (product formation on HPLC) (P450 1B1 (1B1.3, L432V)): oxidized 2EPh at lower levels than P450s 2A13 and 2A6; Formation of oxygenated products on LC-MS analysis (P450 2A13 [1]): formation of oxygenated products
CC#Cc1ccc2c(ccc3ccccc32)c1 [2PPh, 2-(1-propynyl)phenanthrene]	yes	yes	–
C#Cc1ccc2ccc3ccccc3c2c1 [3EPh, 3-ethynylphenanthrene]	yes	yes	Formation of oxygenated products on LC-MS analysis (P450 2A13 [1]): formation of oxygenated products
CC#Cc1ccc2ccc3ccccc3c2c1 [3PPh, 3-(1-propynyl)phenanthrene]	yes	–	Type I spectra Ks (spectral dissociation constant) (P450 2A6 [5]): ND (10 μM)
C#CCOCc1ccc(-c2ccccc2)cc1 [4BMPE, 4-biphenyl methyl propargyl ether]	not detected	–	–
C#CCOc1ccc(-c2ccccc2)cc1 [4BPE, 4-biphenyl propargyl ether]	yes	yes	–
CCC#Cc1ccc(-c2ccccc2)cc1 [4BuB, 4-butynylbiphenyl]	not detected	–	–
C#Cc1ccc(-c2ccccc2)cc1 [4EB, 4-ethynylbiphenyl]	not detected	not detected	–
CC#Cc1ccc(-c2ccccc2)cc1 [4PB, 4-propynylbiphenyl]	not detected	–	–
CCOc1ccc2nc3ccc(=O)cc-3oc2c1 [7-ethoxyresorufin]	–	–	Catalytic activity, 7-ethoxyresorufin O-deethylation (nmol product formed/min/nmol P450) (P450 1A1): 35 min⁻¹; Catalytic activity, 7-ethoxyresorufin O-deethylation (nmol product formed/min/nmol P450) (P450 1A2 [6]): 3.2 min⁻¹; Catalytic activity, 7-ethoxyresorufin O-deethylation (nmol product formed/min/nmol P450) (P450 1B1): 14 min⁻¹
C#Cc1cc2ccccc2c2ccccc12 [9EPh, 9-ethynylphenanthrene]	not detected	–	Type I spectra Ks (spectral dissociation constant) (P450 2A6 [5]): ND (10 μM)
CC#Cc1cc2ccccc2c2ccccc12 [9PPh, 9-(1-propynyl)phenanthrene]	not detected	–	–
C#CCOc1ccccc1-c1ccccc1OCC#C [22BDPE, 2,2′-biphenyl dipropagyl ether]	not detected	–	–
C#CCOc1ccc(-c2ccc(OCC#C)cc2)cc1 [44BDPE, 4,4′-biphenyl dipropargyl ether]	not detected	not detected	–
c1ccc(-c2ccccc2)cc1 [biphenyl]	yes	yes	ΔAmax of Type I binding spectral change (P450 2A13 [7]): 0.045
c1ccc2c(c1)ccc1ccccc12 [phenanthrene]	yes	yes	ΔAmax of Type I binding spectral change (P450 2A13 [7]): 0.063
